Earlier results in patent US20070015720A1, “Modulation of endogenous AICAR levels for the treatment of diabetes and obesity” (CytRx Corporation, priority 2005, published 2007).

Experiments:
[1] = system: obese Zucker (fa/fa) rats; details: long term treatment, high doses
[2] = mice, murine pouch model of inflammation
[3] = low dose, psoriasis patients, day of dosing

Structure (SMILES) | fasting concentrations of glucose and insulin [1] | plasma triglyceride and free fatty acid levels [1] | systolic blood pressure [1] | adipocyte differentiation (adipocytes) | non-insulin stimulated glucose uptake (3T3L1 adipocytes) | increase of AICAR-monophosphate in splenocytes [2] | urinary excretion of aminoimidazole carboxamide (AICA) [3]
NC(=O)c1ncn([C@@H]2O[C@H](CO)[C@@H](O)[C@H]2O)c1N [AICAR, 5-aminoimidazole-4-carboxamide ribonucleoside] | decrease | reduce | decrease | inhibits adipocyte differentiation at an early stage | increase |  | 
CN(Cc1cnc2nc(N)nc(N)c2n1)c1ccc(C(=O)N[C@@H](CCC(=O)O)C(=O)O)cc1 [methotrexate] |  |  |  |  |  | three-fold | statistically significant increase
O=C(O)c1cc(/N=N/c2ccc(S(=O)(=O)Nc3ccccn3)cc2)ccc1O [sulfasalazine] |  |  |  |  |  | three-fold | 
